Test results as given in patent publication US11534493B2, “Pharmaceutical compositions of roflumilast in aqueous blends of water-miscible, pharmaceutically acceptable solvents” (ARCUTIS, INC., priority 2017, dated 2022).

Key:
[1] = aqueous solubility of roflumilast reported in WO95/01338; assay type: physicochemical; settings: cited 0.53 mg/l (21° C.) value converted to w/w %
Source text: Roflumilast and its synthesis were described in U.S. Pat. No. 5,712,298 (the “'298 patent”), incorporated herein by reference.* It has long been recognized that pharmaceutical compounds having phosphodiesterase (PDE)-inhibiting properties, such as roflumilast, are useful for treating psoriasis and atopic dermatitis ('298 patent, col 11 lines 52-61) and other chronic inflammatory and allergen-induced dermatoses. For treatment of such dermatoses, roflumilast emulsions, suspensions, gels or solutions for topical application have been described ('298 patent, col 12, lines 37-64). […] This low aqueous solubility has been problematic for the development of parenteral preparations and topical emulsions, suspensions, gels or solutions containing water. In U.S. Pat. No. 9,205,044 (incorporated herein by reference), the poor water solubility of roflumilast was overcome by using an alkoxylated fat, specifically polyoxyethylated 12-hydroxystearic acid, as a co-solvent for parenteral administration.

[2] = Method: (§1) Roflumilast (Batch A14367P from Interquim S.A.), 0.0205 grams, was weighed into a liquid scintillation vial. DEGEE (Transcutol P, lot 146063, Gattefosse) was added dropwise with mixing to the vial containing roflumilast. After mixing each addition of DEGEE, the tightly capped vial was returned to a water bath set at 25° C.
0.0111 grams of roflumilast (Batch A14367P from Interquim S.A.) was weighed into a liquid scintillation vial. An equimolar blend of DEGEE (Transcutol P, lot 146063, Gattefosse) and distilled water was prepared and added dropwise with mixing to the vial containing roflumilast. An equimolar blend is 88.3% DEGEE and 11.7% water on a weight/weight percent basis. After mixing each addition of equimolar DEGEE:Water, the tightly capped vial was returned to a water bath set at 25° C.

[3] = remark: listed apart in the source
Method: as §1, with “0.0061” for “0.0205”, “PG (propylene glycol, Spectrum Chemical” for “DEGEE (Transcutol P,”, “IEC0004)” for “146063, Gattefosse)”, “PG,” for “DEGEE,”
2.3200 grams of an equimolar blend of PG (Spectrum Chemical lot IEC0004) and distilled water was prepared and added to a scintillation vial containing 0.0012 grams of roflumilast (Batch A14367P from Interquim S.A.). […] An equimolar blend is 80.7% PG and 19.3% water on a weight/weight percent basis.

- saturation solubility of roflumilast in water [1]: 0.000053 w/w %
- calculated ideal solubility in equimolar DEGEE:Water [2]: 0.019 w/w %
- observed saturation solubility greater than calculated ideal solubility in equimolar DEGEE:Water [2]: 232 fold
- observed saturation solubility in DEGEE [2]: 7.1 w/w %
- observed saturation solubility in equimolar DEGEE:Water [2]: 4.4 w/w %
- calculated ideal solubility in equimolar PG:Water [3]: 0.0040 w/w %
- observed saturation solubility greater than calculated ideal solubility in equimolar PG:Water [3]: 15 fold
- observed saturation solubility in PG [3]: 0.3 w/w %
- observed saturation solubility in equimolar PG:Water [3]: 0.06 w/w %
SMILES: O=C(Nc1c(Cl)cncc1Cl)c1ccc(OC(F)F)c(OCC2CC2)c1 [roflumilast, N-(3,5-dichloropyrid-4-yl)-3-cyclopropylmethoxy-4-difluoromethoxybenzamid-e]
